Experimental data: patent US20260272869A1, “ORAL COMPOSITION COMPRISING L-THEANINE” (NICOVENTURES TRADING LIMITED, priority 2023, published 2026)

System: blood-brain barrier
Experiment: Enhancement of blood-brain barrier permeation of P-glycoprotein substrate compounds by piperine
Settings: P-glycoprotein substrate compound combined with piperine

Row | Structure (SMILES) | Permeation across the blood-brain barrier / bioavailability when combined with piperine
1 | CC(/C=C/C=C(\C)C(=O)O)=C\C=C\C=C(C)\C=C\C=C(/C)C(=O)O [crocetin] | enhanced
2 | CC(/C=C/C=C(\C)C(=O)O[C@@H]1O[C@H](CO[C@@H]2O[C@H](CO)[C@@H](O)[C@H](O)[C@H]2O)[C@@H](O)[C@H](O)[C@H]1O)=C\C=C\C=C(C)\C=C\C=C(/C)C(=O)O[C@@H]1O[C@H](CO[C@@H]2O[C@H](CO)[C@@H](O)[C@H](O)[C@H]2O)[C@@H](O)[C@H](O)[C@H]1O [crocin] | enhanced
3 | CC1=C(C)C(=O)O[C@@H]([C@](C)(O)[C@H]2CC[C@H]3[C@@H]4[C@@H]5O[C@@H]5[C@@]5(O)CC=CC(=O)[C@]5(C)[C@H]4CC[C@]23C)C1 [withanolide A] | enhanced
4 | CC1=C(C)C(=O)O[C@@H]([C@@H](C)[C@@]2(O)CC[C@H]3[C@@H]4[C@@H]5O[C@@H]5[C@@]5(O)CC=CC(=O)[C@]5(C)[C@H]4CC[C@@]32C)C1 [withanone] | enhanced
